Source: ChEMBL document CHEMBL1134264, “Identification of a subtype selective human PPARalpha agonist through parallel-array synthesis” (Bioorg Med Chem Lett, 2001)
Values joined by “and” are separate entries in the source; they are usually repeats but may differ in a detail not shown here. Identical values can stand only once. Active and inactive are the calls of the source. The calls are words filed in the database; no cut-off is given here.

Key:
[1] = tested on: Rattus norvegicus; test: In vivo increase in HDL cholesterol in cholesterol/cholic acid fed rats at 3 mg/kg peroral dose for 4 days; assay type: functional; settings: route oral
[2] = tested on: Rattus norvegicus; test: In vivo decrease in serum apolipoprotein CIII in cholesterol/cholic acid fed rats at 3 mg/kg peroral dose for 4 days; assay type: functional; set-up: scale not given: the % may be the effect or the level left; settings: route oral
[3] = tested on: Rattus norvegicus; test: In vivo triglyceride lowering activity in cholesterol/cholic acid fed rats at 3 mg/kg peroral dose for 4 days; assay type: functional; settings: route oral
[4] = tested on: Cricetinae gen. sp.; test: In vivo triglyceride lowering activity in fat-fed hamsters at a dose of 3 mg/kg, po for 7 days; assay type: functional
[5] = target: T1, Peroxisome proliferator-activated receptor delta (Homo sapiens, UniProt Q03181); test: In vitro transcriptional activation in CV-1 cells expressing human Gal4-PPAR delta ligand binding domain; assay type: cell-based
T1 sequence (Q03181 whole entry): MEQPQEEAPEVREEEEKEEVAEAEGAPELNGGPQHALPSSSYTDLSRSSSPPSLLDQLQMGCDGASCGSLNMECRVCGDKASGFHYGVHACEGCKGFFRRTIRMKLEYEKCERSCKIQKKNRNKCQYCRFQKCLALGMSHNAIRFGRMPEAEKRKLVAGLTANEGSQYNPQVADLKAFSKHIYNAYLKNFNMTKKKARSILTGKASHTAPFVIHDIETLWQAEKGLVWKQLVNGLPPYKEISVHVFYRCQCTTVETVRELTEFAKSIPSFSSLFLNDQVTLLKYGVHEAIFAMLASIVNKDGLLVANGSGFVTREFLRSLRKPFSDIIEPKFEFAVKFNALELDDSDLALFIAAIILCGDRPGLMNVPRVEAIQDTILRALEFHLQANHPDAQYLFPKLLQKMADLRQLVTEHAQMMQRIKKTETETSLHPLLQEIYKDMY

[6] = target: T2, Peroxisome proliferator-activated receptor alpha (Homo sapiens, UniProt Q07869)
T2 sequence (Q07869 whole entry): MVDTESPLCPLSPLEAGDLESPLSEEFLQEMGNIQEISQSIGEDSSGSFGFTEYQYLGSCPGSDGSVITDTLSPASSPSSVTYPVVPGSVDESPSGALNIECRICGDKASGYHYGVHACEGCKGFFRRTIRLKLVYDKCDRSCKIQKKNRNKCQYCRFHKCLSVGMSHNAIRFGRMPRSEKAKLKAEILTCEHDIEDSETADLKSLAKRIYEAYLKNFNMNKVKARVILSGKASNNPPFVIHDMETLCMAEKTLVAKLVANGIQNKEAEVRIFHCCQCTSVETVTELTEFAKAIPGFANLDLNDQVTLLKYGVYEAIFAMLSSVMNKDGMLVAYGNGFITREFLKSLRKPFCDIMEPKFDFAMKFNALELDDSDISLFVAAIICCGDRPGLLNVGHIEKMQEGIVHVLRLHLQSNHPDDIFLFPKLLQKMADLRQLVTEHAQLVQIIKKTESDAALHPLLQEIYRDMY
Description: In vitro transcriptional activation in CV-1 cells expressing human Gal4-PPAR alpha ligand binding domain

[7] = tested on: Cricetinae gen. sp.; test: In vivo triglyceride lowering activity in fat-fed hamsters at a dose of 3 mg/kg, po for 7 days; not active; assay type: functional, organism-based; set-up: dose 3 mg/kg; settings: Cricetulus griseus
[8] = target: T3, Peroxisome proliferator-activated receptor gamma (Homo sapiens, UniProt P37231); test: In vitro transcriptional activation in CV-1 cells expressing human Gal4-PPAR gamma ligand binding domain; assay type: cell-based
T3 sequence (P37231 whole entry): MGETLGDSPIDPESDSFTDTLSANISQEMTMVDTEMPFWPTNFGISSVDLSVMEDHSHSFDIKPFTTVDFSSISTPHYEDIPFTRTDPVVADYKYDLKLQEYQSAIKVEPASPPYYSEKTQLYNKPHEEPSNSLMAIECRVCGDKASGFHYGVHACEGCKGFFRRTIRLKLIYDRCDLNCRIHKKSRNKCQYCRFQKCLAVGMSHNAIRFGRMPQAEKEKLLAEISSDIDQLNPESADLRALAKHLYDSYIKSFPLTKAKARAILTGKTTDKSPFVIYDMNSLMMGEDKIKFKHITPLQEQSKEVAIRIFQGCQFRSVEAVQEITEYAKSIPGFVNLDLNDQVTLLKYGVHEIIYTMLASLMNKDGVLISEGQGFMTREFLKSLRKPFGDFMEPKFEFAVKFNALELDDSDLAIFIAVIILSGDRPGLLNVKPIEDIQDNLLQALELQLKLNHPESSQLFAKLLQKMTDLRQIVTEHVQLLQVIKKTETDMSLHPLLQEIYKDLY

EC50 [5] | EC50 [6] | EC50 [8] | Structure (SMILES) | Activity [1] [%] | Activity [2] [%] | Activity [3] [%] | Activity [4] [%] | Activity [7]
> 10000 nM and 2000 nM | 17 nM and 20 nM | 8500 nM and 1400 nM | CC(C)c1ccc(NC(=O)N(CCc2ccc(SC(C)(C)C(=O)O)cc2)CCc2ccc(-c3ccccc3)cc2)cc1 | – | – | – | – | inactive
> 10000 nM | 1 nM | 1000 nM | CC(C)(Sc1ccc(CCN(CCCCC2CCCCC2)C(=O)Nc2cc(Cl)cc(Cl)c2)cc1)C(=O)O | – | – | – | – | inactive
5000 nM | 8 nM | 2400 nM | CC(C)(Sc1ccc(CCN(CCc2ccc(-c3ccccc3)cc2)C(=O)NC2CCCCC2)cc1)C(=O)O | – | – | – | -70 | –
> 10000 nM | 20 nM | 2000 nM | Cc1ccc(NC(=O)N(CCCCC2CCCCC2)CCc2ccc(SC(C)(C)C(=O)O)cc2)cc1[N+](=O)[O-] | – | – | – | -78 | –
> 10000 nM | 50 nM | 2000 nM | CC(C)(Sc1ccc(CCN(CCc2ccc(-c3ccccc3)cc2)C(=O)Nc2cc(Cl)cc(Cl)c2)cc1)C(=O)O | – | – | – | – | inactive
> 10000 nM | 9 nM | 1000 nM | CC(C)(Sc1ccc(CCN(CCCCC2CCCCC2)C(=O)Nc2cccc(C#N)c2)cc1)C(=O)O | – | – | – | -69 | –

More lines, now with the values behind:

Structure (SMILES) | EC50 [5] | EC50 [6] | EC50 [8] | Activity [1] [%] | Activity [2] [%] | Activity [3] [%] | Activity [4] [%] | Activity [7]
CC(C)(Sc1ccc(CCN(CCCCC2CCCCC2)C(=O)NC2CCCCC2)cc1)C(=O)O [GW7647] | – | – | – | 60 | 40 | 60 | -93 | –
COc1ccc(NC(=O)N(CCc2ccc(SC(C)(C)C(=O)O)cc2)CCc2ccc(-c3ccccc3)cc2)c(OC)c1 | 4000 nM | 6 nM | 1200 nM | – | – | – | – | inactive
COc1ccc(C)cc1NC(=O)N(CCc1ccc(SC(C)(C)C(=O)O)cc1)CCc1ccc(-c2ccccc2)cc1 | > 10000 nM | 100 nM | 10000 nM | – | – | – | -33 | –
Cc1cc(C)c(NC(=O)N(CCc2ccc(SC(C)(C)C(=O)O)cc2)CCc2ccc(-c3ccccc3)cc2)cc1C | > 10000 nM | 9 nM | 1350 nM | – | – | – | – | inactive
CCCCCCCN(CCc1ccc(SC(C)(C)C(=O)O)cc1)C(=O)Nc1ccc(F)cc1F [GSK-9578] | – | – | – | – | – | – | -88 | –
COc1ccccc1NC(=O)N(CCCCC1CCCCC1)CCc1ccc(SC(C)(C)C(=O)O)cc1 | 1100 nM | 5 nM | 320 nM | – | – | – | – | inactive
